Laboratory results from patent publication US4109000A, “5-Benzylpicolinic acid derivatives” (Nippon Shinyaku Co., Ltd., priority 1975, dated 1978).
Converted amounts (≈) assume the structure as drawn. Where two headings read alike, the source gives them in different places.

Assays:
[1] = acute toxicity (LD50), intraperitoneal, ddY male mice; conditions: mouse, in vivo, ip, ddY male mice (6 weeks age)
Description: (§1) The pharmacological action of the product of the present invention can be conventionally observed as follows: 50 mg/kg of a sample was administered orally to spontaneously hypertensive rats (male 20-40 weeks age) and percent decrease in blood pressure after 1, 2, 3 and 5 hours was determined, using the known fusaric acid as a reference. Acute toxicity of the compounds was determined by introperitoneal administration of the samples to ddY male mice (6 weeks age), followed by calculation of the values after observation for one week. The results are as follows:

dopamine-β-hydroxylase = molecular target: T1, dopamine-β-hydroxylase (Bos taurus, UniProt P15101); assay: dopamine-β-hydroxylase inhibitory activity; format: biochemical
T1 sequence (P15101 1-610): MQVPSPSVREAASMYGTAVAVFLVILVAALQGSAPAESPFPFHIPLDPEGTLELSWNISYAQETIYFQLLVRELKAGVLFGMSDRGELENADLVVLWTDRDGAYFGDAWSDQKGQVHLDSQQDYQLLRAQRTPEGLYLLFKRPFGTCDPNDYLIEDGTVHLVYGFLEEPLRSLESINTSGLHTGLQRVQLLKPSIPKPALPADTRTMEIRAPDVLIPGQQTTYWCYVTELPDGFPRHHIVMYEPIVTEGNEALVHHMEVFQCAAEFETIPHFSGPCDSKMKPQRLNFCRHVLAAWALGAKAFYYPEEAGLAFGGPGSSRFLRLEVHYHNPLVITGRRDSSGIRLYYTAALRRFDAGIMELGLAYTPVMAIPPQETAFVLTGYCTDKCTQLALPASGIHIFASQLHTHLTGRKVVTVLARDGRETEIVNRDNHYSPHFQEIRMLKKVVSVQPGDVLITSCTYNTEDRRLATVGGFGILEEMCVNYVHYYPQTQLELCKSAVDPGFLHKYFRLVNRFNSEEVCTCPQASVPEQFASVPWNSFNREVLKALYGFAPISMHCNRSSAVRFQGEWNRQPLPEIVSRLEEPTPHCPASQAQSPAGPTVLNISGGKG

[2] = test system: spontaneously hypertensive rats; assay: percent decrease in blood pressure in spontaneously hypertensive rats, oral; format: in vivo, spontaneously hypertensive rats (male); conditions: for % Decrease in blood pressure, 1hr.: after 1 hr; for % Decrease in blood pressure, 2hrs.: after 2 hrs; for % Decrease in blood pressure, 3hrs.: after 3 hrs; for inhibition in vivo at 50 mg/kg: Rattus norvegicus, po, read-out: % Decrease in blood pressure, 5hrs.
Description: as §1, with “week.” for “week. The results are as follows:”

[3] = observation for one week (second table), read-out: LD50 (i.p.)
[4] = 50 mg/kg orally, spontaneously hypertensive rats (male 20-40 weeks)
[5] = 50 mg/kg orally, spontaneously hypertensive rats (male 20-40 weeks), after 5 hrs
[6] = intraperitoneal, observation for one week (first table), read-out: LD50

SMILES	LD50 at 168 h [1, 3]	IC50 (dopamine-β-hydroxylase)	% Decrease in blood pressure, 1hr. [2, 4]	% Decrease in blood pressure, 2hrs. [2, 4]	% Decrease in blood pressure, 3hrs. [2, 4]	inhibition in vivo at 50 mg/kg [2, 5]	LD50 at 168 h [1, 6]	other results
COC(=O)c1ccc(Cc2ccc(O)cc2)cn1 [Methyl 5-(4-hydroxybenzyl)-picolinate, methyl 5-(4-hydroxybenzyl)-picolinate]	1000 mg/kg	28.8 nM	–	–	–	–	–	–
O=C(O)c1ccc(Cc2ccccc2)cn1 [5-Benzylpicolinic acid, 5-benzylpicolinic acid]	–	–	12.7%	19.0%	24.9%	29.5%	138 mg/kg	–
COc1ccc(Cc2ccc(C(=O)O)nc2)cc1 [5-(4-Methoxybenzyl)-picolinic acid, 5-(4-methoxybenzyl)picolinic acid]	–	–	24.8%	28.1%	23.4%	21.9%	132 mg/kg	–
O=C(O)c1ccc(Cc2ccccc2O)cn1 [5-(2-Hydroxybenzyl)-picolinic Acid]	354 mg/kg	91.6 nM	–	–	–	–	–	–
O=C(O)c1ccc(Cc2ccc([N+](=O)[O-])cc2)cn1 [5-(4-Nitrobenzyl)-picolinic acid, 5-(4-nitrobenzyl)picolinic acid]	–	–	–	–	–	39.8%	177 mg/kg	–
CCOC(=O)c1ccc(Cc2ccc(O)cc2)cn1 [Ethyl 5-(4-hydroxybenzyl)-picolinate, ethyl 5-(4-hydroxybenzyl)picolinate]	594 mg/kg	27.6 nM	–	–	–	–	–	–
O=C(O)c1ccc(Cc2ccc(Cl)cc2)cn1 [5-(4-Chlorobenzyl)-picolinic acid, 5-(4-Chlorobenzyl)picolinic acid]	–	–	26.4%	42.1%	48.6%	50.3%	120 mg/kg	–
CCCCc1ccc(C(=O)O)nc1 [Fusaric acid, reference compound]	–	83.7 nM	15.6%	21.3%	16.5%	–	80 mg/kg	inhibition in vivo at 50 mg/kg ([2]; 5 h): 21%
O=C(O)c1ccc(Cc2ccc(O)c(O)c2)cn1 [5-(3,4-Dihydroxybenzyl)-picolinic Acid, 5-(3,4-dihydroxybenzyl)picolinic acid]	561 mg/kg	35.9 nM	–	–	–	–	–	–
Nc1ccc(Cc2ccc(C(=O)O)nc2)cc1 [5-(4-Aminobenzyl)-picolinic Acid]	–	333 nM	–	–	–	–	–	–
O=C(O)c1ccccn1 [Picolinic Acid]	–	8120 nM	–	–	–	–	–	–
COc1ccccc1Cc1ccc(C(=O)O)nc1 [5-(2-Methoxybenzyl)-picolinie acid, 5-(2-Methoxybenzyl)picolinic acid]	–	–	25.9%	26.9%	26.0%	25.5%	177 mg/kg	–
CCOC(=O)c1ccc(Cc2ccccc2)cn1.Cl [Ethyl 5-benzylpicolinate (Hydrochloride), ethyl 5-benzylpicolinate hydrochloride]	–	–	–	–	–	32.4%	140 mg/kg	–
O=C(NCc1ccccc1)c1ccc(Cc2ccccc2)cn1 [5-Benzylpicolinic acid N-benzylamide]	–	–	–	–	–	27.1%	707 mg/kg	–
O=C(O)c1ccc(Cc2ccc(O)cc2)cn1 [5-(4-Hydroxybenzyl)-picolinic Acid, 5-(4-hydroxybenzyl)picolinic acid]	193 mg/kg	–	–	–	–	–	–	ID50 (dopamine-β-hydroxylase; dopamine-β-hydroxylase inhibition): 8.9 ng/mL (≈ 0.0388 µM)
COC(=O)c1ccc(Cc2ccccc2)cn1 [Methyl 5-benzylpicolinate]	–	–	–	–	–	48.8%	88 mg/kg	–
